Measurements from the supplement of paper PMC10307832.

Tests used:
Test in all cases: relative viability (nuclei count vs DMSO), 5 days (fraction); higher = more cells survive
Avagacestat + Linsitinib = compound: NC(=O)[C@@H](CCC(F)(F)F)N(Cc1ccc(-c2ncon2)cc1F)S(=O)(=O)c1ccc(Cl)cc1 [Avagacestat] + C[C@]1(O)C[C@@H](c2nc(-c3ccc4ccc(-c5ccccc5)nc4c3)c3c(N)nccn32)C1 [Linsitinib] (partner 1 µM)
Outline: (§1)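 Each reported value is a median over duplicate plates. It expresses relative viability: treated-well nuclei count divided by vehicle-well nuclei count. Lung cancer cell lines in 1536-well plates were dosed by pin tool a day after seeding, alone with one drug or with a fixed anchor-drug dose plus five library-drug doses (not always all listed) in √10 steps, and nuclei were counted after 5 days.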

Avagacestat + Pictilisib = compound: NC(=O)[C@@H](CCC(F)(F)F)N(Cc1ccc(-c2ncon2)cc1F)S(=O)(=O)c1ccc(Cl)cc1 [Avagacestat] + CS(=O)(=O)N1CCN(Cc2cc3nc(-c4cccc5[nH]ncc45)nc(N4CCOCC4)c3s2)CC1 [Pictilisib] (partner 1 µM)
Outline: as §1

Avagacestat + Alpelisib = compound: NC(=O)[C@@H](CCC(F)(F)F)N(Cc1ccc(-c2ncon2)cc1F)S(=O)(=O)c1ccc(Cl)cc1 [Avagacestat] + Cc1nc(NC(=O)N2CCC[C@H]2C(N)=O)sc1-c1ccnc(C(C)(C)C(F)(F)F)c1 [Alpelisib] (partner 2 µM)
Outline: as §1

Avagacestat + Decitabine = compound: NC(=O)[C@@H](CCC(F)(F)F)N(Cc1ccc(-c2ncon2)cc1F)S(=O)(=O)c1ccc(Cl)cc1 [Avagacestat] + Nc1ncn([C@H]2C[C@H](O)[C@@H](CO)O2)c(=O)n1 [Decitabine] (partner 2 µM)
Outline: as §1

Cell Line	relative viability (Avagacestat + Linsitinib; first compound 0.08 µM)	relative viability (Avagacestat + Linsitinib; first compound 0.253 µM)	relative viability (Avagacestat + Linsitinib; first compound 0.8 µM)	relative viability (Avagacestat + Linsitinib; first compound 2.53 µM)	relative viability (Avagacestat + Linsitinib; first compound 8 µM)	relative viability (Avagacestat + Pictilisib; first compound 0.08 µM)	relative viability (Avagacestat + Pictilisib; first compound 0.253 µM)	relative viability (Avagacestat + Pictilisib; first compound 0.8 µM)	relative viability (Avagacestat + Pictilisib; first compound 2.53 µM)	relative viability (Avagacestat + Pictilisib; first compound 8 µM)	relative viability (Avagacestat + Alpelisib; first compound 0.08 µM)	relative viability (Avagacestat + Alpelisib; first compound 0.253 µM)	relative viability (Avagacestat + Alpelisib; first compound 0.8 µM)	relative viability (Avagacestat + Alpelisib; first compound 2.53 µM)	relative viability (Avagacestat + Alpelisib; first compound 8 µM)	relative viability (Avagacestat + Decitabine; first compound 0.08 µM)	relative viability (Avagacestat + Decitabine; first compound 0.253 µM)	relative viability (Avagacestat + Decitabine; first compound 0.8 µM)	relative viability (Avagacestat + Decitabine; first compound 2.53 µM)	relative viability (Avagacestat + Decitabine; first compound 8 µM)
COR-L 105	0.99	0.972	0.59	0.964	0.755	0.38	0.447	0.326	0.319	0.419	1.14	0.917	0.976	0.679	0.612	0.665	0.734	0.642	0.595	0.558
LK-2	0.966	0.49	0.386		0.505	0.653	0.76	0.429	0.473	0.541	1.51	1.61	0.949	1.02	1	0.413	0.269	0.256		0.291
PC-14	1.11	1.07	1.09	1	0.855	1.06	0.627	0.673	0.544	0.539	0.9	1.05	0.975	1.06	0.587	0.219	0.244	0.218	0.272	0.244
SW 1573	0.894	0.876	0.756	0.771	0.699	0.771	0.625	0.524	0.492	0.444	0.858	0.855	0.688	0.753	0.494	0.539	0.582	0.664	0.446	0.59
NCI-H2085	0.913	0.967	1.08	0.922	0.84	0.543	0.461	0.518	0.501	0.46	1.15	1.07	1.08	1	1.05	0.531	0.609	0.639	0.572	0.585
NCI-H441	0.697	0.565	0.564	0.49	0.461	0.54	0.515	0.496	0.442	0.415	0.92	0.761	1.05	0.973	0.986	0.263	0.232	0.245	0.265	0.24
NCI-H1648																0.469	0.392	0.265	0.363	0.37
NCI-H2126	0.757	0.705	0.696	0.706	0.67	0.521	0.461	0.487	0.477	0.463	0.737	0.743	0.747	0.734	0.68	0.615	0.661	0.577	0.575	0.611
LXF-289	1.02	1.02	0.957	1.02	0.82	0.786	0.857	0.781	0.753	0.66	1.08	1.15	1.04	1.1	0.949	0.359	0.368	0.408	0.347	0.331
